# Where a name gives a salt, the structure may show the parent alone.
# Target: T1, PI3Kδ (p110δ/p85α) (Homo sapiens, UniProt O00329)
# T1 construct: purchased Millipore (Bedford, Mass.)
# Assay: PI3Kδ scintillation proximity assay
# Type: biochemical
# Conditions: 20 μM ATP, 4 nM PI3Kδ
# Excerpt: Example A: PI3Kδ Scintillation Proximity Assay
# Materials: [γ-^33P]ATP (10 mCi/mL) was purchased from Perkin-Elmer (Waltham, Mass.). Lipid kinase substrate, D-myo-Phosphatidylinositol 4,5-bisphosphate (PtdIns(4,5)P2)D (+)-sn-1,2-di-O-octanoylglyceryl, 3-O-phospho linked (PIP2), CAS 204858-53-7, was purchased from Echelon Biosciences (Salt Lake City, Utah). PI3Kδ (p110δ/p85α) was purchased from Millipore (Bedford, Mass.). ATP, MgCl2, DTT, EDTA, MOPS and CHAPS were purchased from Sigma-Aldrich (St. Louis, Mo.). Wheat Germ Agglutinin (WGA) YSi SPA Scintillation Beads was purchased from GE healthcare life sciences (Piscataway, N.J.).
# The kinase reaction was conducted in polystyrene 384-well matrix white plate from Thermo Fisher Scientific in a final volume of 25 μL. Inhibitors were first diluted serially in DMSO and added to the plate wells before the addition of other reaction components. The final concentration of DMSO in the assay was 0.5%. The PI3K assays were carried out at room temperature in 20 mM MOPS, pH 6.7, 10 mM MgCl2, 5 mM DTT and CHAPS 0.03%. Reactions were initiated by the addition of ATP, the final reaction mixture consisted of 20 μM PIP2,20 μM ATP, 0.2 μCi [γ-^33P] ATP, 4 nM PI3Kδ. Reactions were incubated for 210 minutes and terminated by the addition of 40 μL SPA beads suspended in quench buffer: 150 mM potassium phosphate pH 8.0, 20% glycerol. 25 mM EDTA, 400 µM ATP. The final concentration of SPA beads is 1.0 mg/mL. After the plate sealing, plates were shaken overnight at room temperature and centrifuged at 1800 rpm for 10 minutes, the radioactivity of the product was determined by scintillation counting on Topcount (Perkin-Elmer). IC50 determination was performed by fitting the curve of percent control activity versus the log of the inhibitor concentration using the GraphPad Prism 3.0 software.
# T1 sequence (O00329 whole entry, species assumed): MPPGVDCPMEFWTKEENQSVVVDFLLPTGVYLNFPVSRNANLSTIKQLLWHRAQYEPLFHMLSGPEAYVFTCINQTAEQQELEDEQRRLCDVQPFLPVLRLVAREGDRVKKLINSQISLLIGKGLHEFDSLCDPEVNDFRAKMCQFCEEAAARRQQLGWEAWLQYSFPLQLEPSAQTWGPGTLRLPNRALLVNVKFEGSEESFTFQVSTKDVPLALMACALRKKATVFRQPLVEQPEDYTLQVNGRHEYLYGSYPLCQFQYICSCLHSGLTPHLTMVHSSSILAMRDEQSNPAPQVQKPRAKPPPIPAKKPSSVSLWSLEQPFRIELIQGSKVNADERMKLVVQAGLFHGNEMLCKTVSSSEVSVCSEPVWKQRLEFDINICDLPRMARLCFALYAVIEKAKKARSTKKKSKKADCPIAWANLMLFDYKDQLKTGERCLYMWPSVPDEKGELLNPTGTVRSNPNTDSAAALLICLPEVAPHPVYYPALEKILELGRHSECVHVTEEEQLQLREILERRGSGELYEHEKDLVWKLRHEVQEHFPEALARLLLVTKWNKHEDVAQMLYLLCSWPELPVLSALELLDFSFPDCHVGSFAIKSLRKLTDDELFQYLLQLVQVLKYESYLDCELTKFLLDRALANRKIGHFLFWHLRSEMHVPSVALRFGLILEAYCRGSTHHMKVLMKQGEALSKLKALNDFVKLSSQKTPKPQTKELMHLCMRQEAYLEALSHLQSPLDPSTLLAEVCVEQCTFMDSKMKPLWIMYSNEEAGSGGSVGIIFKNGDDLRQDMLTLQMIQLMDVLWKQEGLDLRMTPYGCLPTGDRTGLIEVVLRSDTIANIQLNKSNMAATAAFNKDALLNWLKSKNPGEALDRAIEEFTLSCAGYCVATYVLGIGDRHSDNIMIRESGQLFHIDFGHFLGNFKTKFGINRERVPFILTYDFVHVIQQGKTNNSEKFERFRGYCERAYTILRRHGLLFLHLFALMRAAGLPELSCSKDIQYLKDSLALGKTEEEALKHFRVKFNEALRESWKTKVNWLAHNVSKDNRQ
# T1 sequence (P27986 whole entry partner, species assumed): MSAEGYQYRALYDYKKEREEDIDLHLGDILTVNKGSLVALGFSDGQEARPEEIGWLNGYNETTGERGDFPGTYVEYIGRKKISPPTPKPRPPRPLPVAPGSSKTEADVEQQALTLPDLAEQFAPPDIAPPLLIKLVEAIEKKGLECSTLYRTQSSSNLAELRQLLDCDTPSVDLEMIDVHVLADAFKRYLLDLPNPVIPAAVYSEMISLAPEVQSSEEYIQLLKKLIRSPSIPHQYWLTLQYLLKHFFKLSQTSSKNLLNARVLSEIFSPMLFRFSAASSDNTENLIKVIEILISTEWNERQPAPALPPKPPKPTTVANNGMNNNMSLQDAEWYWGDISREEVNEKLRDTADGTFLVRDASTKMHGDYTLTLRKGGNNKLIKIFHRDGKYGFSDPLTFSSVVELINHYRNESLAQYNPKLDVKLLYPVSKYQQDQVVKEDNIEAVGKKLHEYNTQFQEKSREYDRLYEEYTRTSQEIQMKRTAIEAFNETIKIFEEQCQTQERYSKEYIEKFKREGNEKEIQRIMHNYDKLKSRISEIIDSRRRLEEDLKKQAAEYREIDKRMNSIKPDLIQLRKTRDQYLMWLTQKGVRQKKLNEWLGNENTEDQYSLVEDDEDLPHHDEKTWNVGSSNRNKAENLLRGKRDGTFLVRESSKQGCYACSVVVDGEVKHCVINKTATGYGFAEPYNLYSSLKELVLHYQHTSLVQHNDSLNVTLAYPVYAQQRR
row,Compound,IC50 [nM]
1,"COc1c(C(C)Nc2ncnc3[nH]cnc23)cc(Cl)c(C)c1C1CNC1 (centres unmarked) [Example 165, N-[1-(3-azetidin-3-yl-5-chloro-2-methoxy-4-methylphenyl)ethyl]-9H-purin-6-amine bis(trifluoroacetate)]",< 50
2,"COC(=O)N1CC(c2c(C)c(Cl)cc(C(C)Nc3ncnc4[nH]cnc34)c2OC)C1 (centres unmarked) [Example 167, Methyl 3-{3-chloro-6-methoxy-2-methyl-5-[1-(9H-purin-6-ylamino)ethyl]phenyl}azetidine-1-carboxylate trifluoroacetate]",< 50
3,"CNC(=O)N1CC(c2c(C)c(Cl)cc(C(C)Nc3ncnc4[nH]cnc34)c2OC)C1 (centres unmarked) [Example 168, 3-{3-Chloro-6-methoxy-2-methyl-5-[1-(9H-purin-6-ylamino)ethyl]phenyl}-N-methylazetidine-1-carboxamide trifluoroacetate]",< 50
4,"COc1c(C(C)Nc2ncnc3[nH]cnc23)cc(Cl)c(C)c1C1CN(S(C)(=O)=O)C1 (centres unmarked) [Example 169, N-(1-{5-Chloro-2-methoxy-4-methyl-3-[1-(methylsulfonyl)azetidin-3-yl]phenyl}ethyl)-9H-purin-6-amine trifluoroacetate]",< 50
5,"COc1c(C(C)Nc2ncnc3[nH]cnc23)cc(Cl)c(C)c1C1CN(C)C1 (centres unmarked) [Example 171, N-{1-[5-Chloro-2-methoxy-4-methyl-3-(1-methylazetidin-3-yl)phenyl]ethyl}-9H-purin-6-amine bis(trifluoroacetate)]",< 50
6,"COc1c(C(C)Nc2ncnc3[nH]cnc23)cc(Cl)c(F)c1C1CN(C(C)C)C1 (centres unmarked) [Example 172, N-{1-[5-Chloro-4-fluoro-3-(1-isopropylazetidin-3-yl)-2-methoxyphenyl]ethyl}-9H-purin-6-amine bis(trifluoroacetate)]",< 50
7,"CCOc1c(C(C)Nc2ncnc3[nH]cnc23)cc(Cl)c(C)c1C1CN(C)C1 (centres unmarked) [Example 173, N-{1-[5-chloro-2-ethoxy-4-methyl-3-(1-methylazetidin-3-yl)phenyl]ethyl}-9H-purin-6-amine]",< 50
8,"COc1c(C(C)Nc2ncnc3[nH]cnc23)cc(Cl)c(C)c1-c1ccc(C(C)(C)OC)nc1 (centres unmarked) [Example 185, N-(1-{5-chloro-2-methoxy-3-[6-(1-methoxy-1-methylethyl)pyridin-3-yl]-4-methylphenyl}ethyl)-9H-purin-6-amine bis(2,2,2-trifluoroacetate)]",< 50
9,"CCOc1c(C(C)Nc2ncnc3[nH]cnc23)cc(C)c(C#N)c1-c1cncc(S(C)(=O)=O)c1 (centres unmarked) [Example 186, 3-ethoxy-6-methyl-2-[5-(methylsulfonyl)pyridin-3-yl]-4-[1-(9H-purin-6-ylamino)ethyl]benzonitrile bis(2,2,2-trifluoroacetate)]",< 50
10,"COc1c(C(C)Nc2ncnc3[nH]cnc23)cc(Cl)c(C)c1C1CN(C(C)C)C(=O)O1 (centres unmarked) [Example 189, 5-{3-Chloro-6-methoxy-2-methyl-5-[1-(9H-purin-6-ylamino)ethyl]phenyl}-3-isopropyl-1,3-oxazolidin-2-one trifluoroacetate]",< 50
11,"COc1c(C(C)Nc2ncnc3[nH]cnc23)cc(Cl)c(C)c1C1CN(C(C)C)C(=O)CO1 (centres unmarked) [Example 191, 6-{3-Chloro-6-methoxy-2-methyl-5-[1-(9H-purin-6-ylamino)ethyl]phenyl}-4-isopropylmorpholin-3-one trifluoroacetate]",< 50
12,"COc1c(C(C)Nc2ncnc3[nH]cnc23)cc(Cl)c(Cl)c1C1CN(C(C)C(F)(F)F)C1 (centres unmarked) [Example 198, N-(1-{4,5-Dichloro-2-methoxy-3-[1-(2,2,2-trifluoro-1-methylethyl)azetidin-3-yl]phenyl}ethyl)-9H-purin-6-amine bistrifluoroacetate]",< 50
13,"COc1c(C(C)Nc2ncnc3[nH]cnc23)cc(Cl)c(Cl)c1C1CN(CC#N)C1 (centres unmarked) [Example 206, (3-{2,3-Dichloro-6-methoxy-5-[1-(9H-purin-6-ylamino)ethyl]phenyl}azetidin-1-yl)acetonitrile bis(trifluoroacetate)]",< 50
14,"COc1c(C(C)Nc2ncnc3[nH]cnc23)cc(Cl)c(Cl)c1C1CN(CC(F)(F)F)C1 (centres unmarked) [Example 207, N-(1-{4,5-Dichloro-2-methoxy-3-[1-(2,2,2-trifluoroethyl)azetidin-3-yl]phenyl}ethyl)-9H-purin-6-amine bis(trifluoroacetate)]",< 50
15,"COc1c(C(C)Nc2ncnc3[nH]cnc23)cc(Cl)c(Cl)c1C1CN(C2CCC2)C1 (centres unmarked) [Example 209, N-{1-[4,5-Dichloro-3-(1-cyclobutylazetidin-3-yl)-2-methoxyphenyl]ethyl}-9H-purin-6-amine bistrifluoroacetate]",< 50
16,"COc1c(C(C)Nc2ncnc3[nH]cnc23)cc(Cl)c(Cl)c1C1CN(CC(F)F)C1 (centres unmarked) [Example 210, N-(1-{4,5-Dichloro-3-[1-(2,2-difluoroethyl)azetidin-3-yl]-2-methoxyphenyl}ethyl)-9H-purin-6-amine bis(trifluoroacetate)]",< 50

# Now from value to molecule:
row,IC50 [nM],Compound
1,< 50,"Cc1c(Cl)cc(C(C)Nc2ncnc3[nH]cnc23)c(OCCN2CCOCC2)c1-c1cc(F)cc(C(N)=O)c1 (centres unmarked) [Example 159, 3′-chloro-5-fluoro-2′-methyl-6′-(2-morpholin-4-ylethoxy)-5′-[1-(9H-purin-6-yl-amino)ethyl]-biphenyl-3-carboxamide]"
2,< 50,"COc1ncc(-c2c(C)c(Cl)cc(C(C)Nc3ncnc4[nH]cnc34)c2OCCN2CCOCC2)cc1F (centres unmarked) [Example 160, N-{1-[5-chloro-3-(5-fluoro-6-methoxy-pyridin-3-yl)-4-methyl-2-(2-mor-pholin-4-ylethoxy)-phenyl]-ethyl}-9H-purin-6-amine]"
3,< 50,"COc1ncc(-c2c(C)c(Cl)cc(C(C)Nc3ncnc4[nH]cnc34)c2OCCN2CCOCC2)cn1 (centres unmarked) [Example 161, N-{1-[5-chloro-3-(2-methoxy-pyrimidin-5-yl)-4-methyl-2-(2-morpholin-4-yl-ethoxy)-phenyl]-ethyl}-9H-purin-6-amine]"
4,< 50,"Cc1c(Cl)cc(C(C)Nc2ncnc3[nH]cnc23)c(OCCN2CCOCC2)c1-c1cncc(F)c1 (centres unmarked) [Example 162, N-{1-[5-chloro-3-(5-fluoro-pyridin-3-yl)-4-methyl-2-(2-mor-pholin-4-ylethoxy)-phenyl]-ethyl}-9H-purin-6-amine]"
5,< 50,"COc1c(C(C)Nc2ncnc3[nH]cnc23)cc(Cl)c(C)c1-c1ccnnc1 (centres unmarked) [Example 163, N-[1-(5-Chloro-2-methoxy-4-methyl-3-pyridazin-4-ylphenyl)ethyl]-9H-purin-6-amine bis(trifluoroacetate)]"
6,< 50,"COc1c(C(C)Nc2ncnc3[nH]cnc23)cc(Cl)c(C)c1-c1cscn1 (centres unmarked) [Example 164, N-{1-[5-Chloro-2-methoxy-4-methyl-3-(1,3-thiazol-4-yl)phenyl]ethyl}-9H-purin-6-amine trifluoroacetate]"
7,< 50,"CNC(=O)c1cc(-c2c(C)c(Cl)cc(C(C)Nc3ncnc4[nH]cnc34)c2OC)cn1C (centres unmarked) [Example 175, 4-{3-Chloro-6-methoxy-2-methyl-5-[1-(9H-purin-6-ylamino)ethyl]phenyl}-N,1-dimethyl-1H-pyrrole-2-carboxamide]"
8,< 50,"CCC(Nc1ncnc2[nH]cnc12)c1cc(Cl)c(C)c(-c2cncc(F)c2)c1OC (centres unmarked) [Example 181, N-{1-[5-chloro-3-(5-fluoropyridin-3-yl)-2-methoxy-4-methylphenyl]propyl}-9H-purin-6-amine bis(2,2,2-trifluoroacetate)]"
9,< 50,"CCC(Nc1ncnc2[nH]cnc12)c1cc(Cl)c(C)c(-c2cncc(S(C)(=O)=O)c2)c1OC (centres unmarked) [Example 182, N-(1-{5-chloro-2-methoxy-4-methyl-3-[5-(methylsulfonyl)pyridin-3-yl]phenyl}propyl)-9H-purin-6-amine bis(2,2,2-trifluoroacetate)]"
10,< 50,"COc1c(C(C)Nc2ncnc3[nH]cnc23)cc(Cl)c(C)c1-c1ccc(CO)nc1 (centres unmarked) [Example 183, (5-{3-chloro-6-methoxy-2-methyl-5-[1-(9H-purin-6-ylamino)ethyl]phenyl}pyridin-2-yl)methanol bis(2,2,2-trifluoroacetate)]"
11,< 50,"COc1c(C(C)Nc2ncnc3[nH]cnc23)cc(Cl)c(C)c1-c1ccc(C(C)(C)O)nc1 (centres unmarked) [Example 184, 2-(5-{3-chloro-6-methoxy-2-methyl-5-[1-(9H-purin-6-ylamino)ethyl]phenyl}pyridin-2-yl)propan-2-ol bis(2,2,2-trifluoroacetate)]"
12,< 50,"COc1c(C(C)Nc2ncnc3[nH]cnc23)cc(Cl)c(F)c1CN1CCOCC1 (centres unmarked) [Example 188, N-{1-[5-Chloro-4-fluoro-2-methoxy-3-(morpholin-4-ylmethyl)phenyl]ethyl}-9H-purin-6-amine]"
13,< 50,"COc1c(C(C)Nc2ncnc3[nH]cnc23)cc(Cl)c(C)c1C(O)CN1CCOCC1 (centres unmarked) [Example 190, 1-{3-Chloro-6-methoxy-2-methyl-5-[1-(9H-purin-6-ylamino)ethyl]phenyl}-2-morpholin-4-ylethanol bis(trifluoroacetate)]"

# Source: patent publication US9815839B2, “N-(1-(substituted-phenyl)ethyl)-9H-purin-6-amines as PI3K inhibitors” (Incyte Corporation, priority 2010, dated 2017)
